Test [1] relates to phosphorylation of myosin regulatory light chain. Briefly: Inhibitory action on phosphorylation of myosin regulatory light chain (Test Example 1). It is filed as cell-based. As to conditions: Neutrophil, 5 min; human peripheral blood neutrophils, 25° C. for 5 minutes; read-out: IC50, compound concentration providing a phosphorylation inhibition ratio of 50% (myosin regulatory light chain). As for the experimental part: A volume of 50 to 100 ml of peripheral blood collected from healthy volunteers was centrifuged by using Mono-Poly separator solution (Dainippon Pharmaceutical) to prepare a neutrophil containing fraction. The neutrophils were washed with PBS(−) and resuspended in Hanks' Balanced Salt Solution (HBSS+, Gibco) to prepare a cell suspension (8×10^6/ml). The cell suspension was diluted to 5×10^6/ml, introduced into Eppendorf tubes in a volume of 0.4 ml each, then 0.1 ml each of solutions of a test compound at various concentrations were added to the suspension and allowed to react at 25° C. for 5 minutes. After the reaction, 0.1 ml of trichloroacetic acid solution was added to each reaction mixture, the reaction mixture was gently shaken and centrifuged at 12,000 rpm (4° C., 5 minutes), and the supernatant was removed. Subsequently, 3 μl of 1 M Tris solution was added to the residue, the mixture was further mixed with 50 μl of extraction buffer (8 M urea, 0.02% 2-mercaptoethanol, 0.002% bromophenol blue) and left stand at room temperature for 1 hour. Then, the reaction mixture was loaded on a spin column (0.45 μm, Millipore) to remove the insoluble solids and a sample buffer for SDS polyacrylamide gel electrophoresis (25 mM, Tris-HCl pH 6.8, 2.5% 2-mercaptoethanol, 2% sodium dodecylsulfate, 5% sucrose, 0.002% bromophenol blue as final concentrations) was added, and 10 μl of each sample was subjected to electrophoresis.
The gel after the electrophoresis was blotted on a nitrocellulose membrane (BioRad), blocked with 5% skim milk, and reacted successively with antibodies pLC1 (Sakurada K. et al, Am. J. Physiol., 274, C1563-C1572 (1998)), which specifically recognize the phosphorylated myosin regulatory light chain, and donkey anti-mouse IgG (Chemicon) conjugated with horseradish peroxidase. The band of the phosphorylated myosin regulatory light chain was detected on a film by using ECL Plus Kit (Amersham Pharmacia Biotech). This band was subjected to quantification using a densitometer. By using this value, the inhibitory ratio (%) for phosphorylation of the myosin regulatory light chain was calculated by using the following equation. Phosphorylation inhibition ratio(%)=1−(Band intensity of phosphorylated myosin regulatory light chain with addition of the test compound/Band intensity of phosphorylated myosin regulatory light chain without addition of the test compound)×100
Further, the phosphorylation inhibition ratio was calculated with changing the concentrations of the test compound, and a compound concentration providing an inhibition ratio of 50% was obtained as IC50.

Test [2] has as its system rabbit normal intraocular pressure. In words: Intraocular pressure reducing action (Test Example 2). The conditions noted are these: Oryctolagus cuniculus, topical; 3 mM aqueous solution, 50 μl to the left eye; measured after 2, 4 and 6 hours; read-out: intraocular pressure reducing degree (max ΔIOP / intraocular pressure value immediately before administration × 100). It is filed as in vivo, Japanese white rabbit. As for the experimental part: A Japanese white rabbit having a body weight of about 2 kg was placed in a positioner and naturalized for one week before the experiment. An opthalmologic local anesthesant (Benoxil) was administered to both eyes, and then intraocular pressure was measured by using a tonometer (Classic 30, Solan). A 3 mM aqueous solution of a test compound was administered in a volume of 50 μl to the left eye, and the right eye was not treated (control eye). The intraocular pressure values were measured for the left and right eyes immediately before, and 2, 4 and 6 hours after the administration of the aqueous solution of the test compound, and the difference of the measured values for the left and right eyes was considered an intraocular pressure reduction value of the test medicament at each measurement time. The largest difference of the values for the left and right eyes among the measured values at the measurement times (after 2, 4 and 6 hours) was considered the maximum intraocular pressure reduction value (max ΔIOP) of each test medicament. The intraocular pressure reducing degree representing the intraocular pressure reducing action of each test medicament was calculated according to the following formula. Since rabbits show significant daily variation of intraocular pressure, daily variation is added when change of intraocular pressure is measured over time, and the intraocular pressure reducing action may be overestimated. Therefore, we used this calculation method of intraocular pressure reduction value in order to minimize the influence of the variation. Intraocular pressure reducing degree (%)=(max ΔIOP/Intraocular pressure value immediately before administration)×100

In a further test the test system is neutrophils. Briefly: Neutrophil migration inhibitory action, Boyden Chamber, FMLP (Test Example 3). It is filed as cell-based. As to conditions: 0.5 h, human neutrophils, FMLP 1 μM, 37° C., 30 minutes, read-out: IC50, compound concentration providing a migration inhibition ratio of 50%. As for the experimental part: Neutrophils were isolated from 50 to 100 ml of peripheral blood collected from healthy human donors by the method described in Test Example 1 to obtain a cell suspension (8×10^6/ml). Subsequently, solutions of a test compound at various concentrations were introduced into wells of a 96-well plate in a volume of 125 μl per well, the cell suspension of an equivalent volume was added to it and the plate was preincubated at room temperature for 5 minutes. During the preincubation, FMLP (1 μM, Sigma) solution was added to the lower chamber to set Boyden Chamber, the preincubated cell suspension was added to the upper chamber in a volume of 200 μl per well, and the cells were allowed to migrate at 37° C. under 5% carbon dioxide for 30 minutes. The filter after the migration was collected, and the non-migrated cells adhered to the surface that faced the upper chamber were carefully wiped off. Then, the migrated cells on the back surface were stained with DifQuick dye solution (International Reagents), washed with water and dried, and then absorbance was measured at 595 nm. The inhibition ratio against migration (%) of a test compound was calculated by using the following equation: Migration inhibition ratio(%)=(1−Absorbance of the group with addition of test compound/Absorbance of the group without addition of test compound)×100
Further, the migration inhibitory ratio was calculated with changing the test compound concentration, and a compound concentration providing an inhibition ratio of 50% was obtained as IC50.

Consider `N[C@H]1CCN(S(=O)(=O)c2cccc3cncc(Br)c23)C1` [Example 1-1, (S)-3-Amino-1-(4-bromo-5-isoquinolinesulfonyl)pyrrolidine], for which the IC50 was less than 10 µM in test [1] and 10 to 40 µM in the test with neutrophils. Further, the inhibition in vivo at 3000 µM in test [2] was no less than 20%.
On the same counts, the results for `N[C@@H]1CCN(S(=O)(=O)c2cccc3cncc(Br)c23)C1` [Example 1-2, (R)-3-Amino-1-(4-bromo-5-isoquinolinesulfonyl)pyrrolidine] are less than 10 µM, 10 to 40 µM and no less than 20%.
In the same order, the values of `O=S(=O)(c1cccc2cncc(Br)c12)N1CC[C@H](NCc2ccco2)C1` [Example 4-1, (S)-3-(2-Furylmethyl)amino-1-(4-bromo-5-isoquinolinesulfonyl)pyrrolidine] are less than 10 µM, less than 10 µM and no less than 20%.
On the same counts, the results for `N[C@H]1CCN(S(=O)(=O)c2cccc3c(O)ncc(Br)c23)C1` [Example 7-1, (S)-3-Amino-1-(1-hydroxy-4-bromo-5-isoquinolinesulfonyl)pyrrolidine] are less than 10 µM, less than 10 µM and no less than 20%.
Turning to `Cc1cncc2cccc(S(=O)(=O)N3CC[C@H](N)C3)c12` [Example 8-1, (S)-3-Amino-1-(4-methyl-5-isoquinolinesulfonyl)pyrrolidine], the IC50 (in test [1]; in the test on neutrophils) was less than 10 µM each time. The inhibition in vivo at 3000 µM in test [2] was no less than 20%.
For `Cc1cncc2cccc(S(=O)(=O)N3CC[C@@H](N)C3)c12` [Example 8-2, (R)-3-Amino-1-(4-methyl-5-isoquinolinesulfonyl)pyrrolidine], the IC50 (in test [1]; in the test on neutrophils) was less than 10 µM throughout. For the same molecule, the inhibition in vivo at 3000 µM in test [2] is no less than 20%.
As for `C=Cc1cncc2cccc(S(=O)(=O)N3CC[C@H](N)C3)c12` [Example 9-1, (S)-3-Amino-1-(4-vinyl-5-isoquinolinesulfonyl)pyrrolidine], the IC50 was less than 10 µM in test [1] and 10 to 40 µM in the test on neutrophils. In test [2], the inhibition in vivo at 3000 µM is no less than 20%.
On the same counts, the results for `C#Cc1cncc2cccc(S(=O)(=O)N3CC[C@H](N)C3)c12` [Example 10-1, (S)-3-Amino-1-(4-ethynyl-5-isoquinolinesulfonyl)pyrrolidine] are less than 10 µM, 10 to 40 µM and no less than 20%.
In the same order, the values of `N[C@H]1CCN(S(=O)(=O)c2cccc3cncc(C4CC4)c23)C1` [Example 11-1, (S)-3-Amino-1-(4-cyclopropyl-5-isoquinolinesulfonyl)pyrrolidine] are less than 10 µM, 10 to 40 µM and 5 to 10%.
Consider `Nc1cncc2cccc(S(=O)(=O)N3CC[C@H](N)C3)c12` [Example 12-1, (S)-3-Amino-1-(4-amino-5-isoquinolinesulfonyl)pyrrolidine], for which the IC50 in test [1] is 10 to 40 µM. Also, the inhibition in vivo at 3000 µM in test [2] fell in the range of 10 to 20%.
Take `N#Cc1cncc2cccc(S(=O)(=O)N3CC[C@H](N)C3)c12` [Example 13-1, (S)-3-Amino-1-(4-cyano-5-isoquinolinesulfonyl)pyrrolidine]: the inhibition in vivo at 3000 µM in test [2] was in the range of 5 to 10%.
Take `COc1cncc2cccc(S(=O)(=O)N3CC[C@H](N)C3)c12` [Example 15-1, (S)-3-Amino-1-(4-methoxy-5-isoquinolinesulfonyl)pyrrolidine]: the IC50 in test [1] was 10 to 40 µM. The inhibition in vivo at 3000 µM in test [2] fell in the range of 5 to 10%.
On the same counts, the results for `N[C@H]1CCN(S(=O)(=O)c2cccc3cncc(F)c23)C1` [Example 18-1, (S)-3-Amino-1-(4-fluoro-5-isoquinolinesulfonyl)pyrrolidine] are 10 to 40 µM and no less than 20%.
On the same counts, the results for `N[C@H]1CCCN(S(=O)(=O)c2cccc3cncc(Cl)c23)C1` [Example 21-1, (S)-3-Amino-1-(4-chloro-5-isoquinolinesulfonyl)piperidine] are 10 to 40 µM and no less than 20%.
Consider `N[C@@H]1CCCN(S(=O)(=O)c2cccc3cncc(Cl)c23)C1` [Example 21-2, (R)-3-Amino-1-(4-chloro-5-isoquinolinesulfonyl)piperidine], for which the IC50 in test [1] is 10 to 40 µM. For the same molecule, in test [2], the inhibition in vivo at 3000 µM is 10 to 20%.
As to `N[C@H]1CCN(S(=O)(=O)c2cccc3cncc(-c4cnoc4)c23)C1` [Example 24-1, (S)-3-Amino-1-[4-(4-isoxazolyl)-5-isoquinolinesulfonyl]pyrrolidine], the inhibition in vivo at 3000 µM in test [2] lay within 5 to 10%.
The same measure, in the same setting: as for `N[C@H]1CCN(S(=O)(=O)c2cccc3c(O)ncc(F)c23)C1` [Example 29-1, (S)-3-Amino-1-(1-hydroxy-4-fluoro-5-isoquinolinesulfonyl)pyrrolidine], the figure is 10 to 20%.
For `N[C@H]1CCN(S(=O)(=O)c2cccc3c(O)ncc(Cl)c23)C1` [Example 30-1, (S)-3-Amino-1-(1-hydroxy-4-chloro-5-isoquinolinesulfonyl)pyrrolidine], the inhibition in vivo at 3000 µM in test [2] was no less than 20%.
The same measure, in the same setting: for `CN[C@H]1CCN(S(=O)(=O)c2cccc3c(O)ncc(Br)c23)C1` [Example 35-1, (S)-1-(1-Hydroxy-4-bromo-5-isoquinolinesulfonyl)-3-(methylamino)pyrrolidine] the value was 5 to 10%.
Still for that read-out and setting: for `CN[C@@H]1CCN(S(=O)(=O)c2cccc3c(O)ncc(Cl)c23)C1` [Example 36-2, (R)-1-(1-Hydroxy-4-chloro-5-isoquinolinesulfonyl)-3-(methylamino)pyrrolidine] the value was 10 to 20%; for `O=S(=O)(c1cccc2c(O)ncc(Br)c12)N1CC[C@H](NCc2ccco2)C1` [Example 38-1, (S)-1-(1-Hydroxy-4-bromo-5-isoquinolinesulfonyl)-3-(2-furylmethylamino)pyrrolidine], 5 to 10%.
Same read-out and setting: as for `Nc1ncc(Cl)c2c(S(=O)(=O)N3CC[C@H](N)C3)cccc12` [Example 39-1, (S)-3-Amino-1-(1-amino-4-chloro-5-isoquinolinesulfonyl)pyrrolidine], the figure is 10 to 20%.
Regarding `CN[C@H]1CCN(S(=O)(=O)c2cccc3c(N)ncc(Cl)c23)C1` [Example 40-1, (S)-1-(1-Amino-4-chloro-5-isoquinolinesulfonyl)-3-(methylamino)pyrrolidine], the inhibition in vivo at 3000 µM in test [2] lay within 5 to 10%.
In the case of `CN[C@H]1CCN(S(=O)(=O)c2cccc3c(N)ncc(Br)c23)C1` [Example 42-1, (S)-1-(1-Amino-4-bromo-5-isoquinolinesulfonyl)-3-(methylamino)pyrrolidine], in test [2], the inhibition in vivo at 3000 µM lay within 5 to 10%.

The record behind these values is patent US7618984B2, “Sulfonamide compound” (Asahi Kasei Pharma Corporation, priority 2005, dated 2009).
